In patent US8835632B2, “Methods to increase the photostability of dyes” (The University of North Carolina at Chapel Hill, priority 2007, dated 2014):

Legend:
Assay type in all cases: physicochemical
[1] = Relative rate of reaction with chemically generated singlet oxygen in DMSO; conditions: 2.5 mM, 1O2 from 1,4-dimethylnaphtalene-1,4-endoperoxide
Protocol: The bleaching rates for the dyes differed by two orders of magnitude. The relative rate constants kr (rel) for product formation during reaction with singlet oxygen were measured by comparing the percent conversions for dyes dissolved in DMSO containing a fixed amount of ^1O2 (2.5 mM solutions; ^1O2 generated by decomposition of 1,4-dimethylnaphtalene-1,4-endoperoxide). The rates were generally higher for dyes with a polar ground state (1a, 2a, 2b, 2d) than for the dyes with their ground state at the “cyanine limit” (3, 4). […] Olefins without allylic hydrogens react with singlet oxygen to form dioxetanes. Dioxetanes are unstable and decompose, to form two carbonyl compounds.

[2] = Photobleaching under constant illumination from a halogen tungsten lamp filtered through glass
From the text: The photostability of dyes can be important for applications in living cells. The mechanism of photobleaching for merocyanines of varying structure has been examined See Toutchkine et al., J. Am. Chem. Soc. 125:4132-4145 (2003). The photostability of the presently disclosed dyes was characterized by exposing them to constant illumination from a halogen tungsten lamp filtered through glass. This broad spectrum light source provided essentially equal intensity throughout the spectral range where the dyes absorb and where they would be irradiated in vivo (about 600 nm to about 650 nm).

[3] = Absorption and fluorescence spectra, extinction coefficient, fluorescence quantum yield
Protocol: Absorption spectra were recorded on a Hewlett-Packard 8453 diode array UV-Vis spectrophotometer (Agilent Technologies, Inc., Santa Clara, Calif.), and fluorescence measurements were taken on a SPEX® Fluorolog 2 spectrofluorometer (HORIBA Jobin Yvon, Inc., Edison, N.J.). Melting points are not corrected. NMR spectra were obtained on a Varian Mercury 300 MHz (Varian, Inc., Palo Alto, Calif.) or on a Bruker 300 MHz DRX 300 spectrometer (Bruker Biospin Corp., Billerica, Mass.). Mass spectra were obtained on a Hewlett-Packard 1100 high-performance liquid chromatograph equipped with an 1100 mass selective detector (MS-ESI) (Agilent Technologies, Inc.).
With decreasing solvent polarity, the absorption maximum of dyes 1a-b, 2a-d shifted to longer wavelengths, and the intensity of the transition increased (Table 10, FIG. 11).
The SCRF/VSCRF predicted emission energies and the solute dipole moments before and after the vertical emission process are given in Table 16. The dipole moments of AI-BA(4) and AI-SO(4) are further decreased on the S1 surface after geometry relaxation (in MeOH solution), and then increased during the S1→S0 transition. This observation is consistent with the blue shifts of the emission bands of AI-BA(4) and AI-SO(4) with increasing solvent polarity from C6H6 to MeOH. By contrast, the dipole moment of I-SO further decreases after S1 state geometry relaxation, and then decreases during the vertical emission process. This observation also is in agreement with the red shift of the I-SO emission band with increasing solvent polarity from C6H6 to MeOH. Similarly to the absorption case, a negligible red shift (ΔEem=0.017 eV) was predicted for the emission band of I-TBA with increasing solvent polarity. A small red shift from C6H6 to DMF (with ΔEem=0.020 eV, or Δλmax=6 nm) is observed. The nearly equal emission energy observed in C6H6 and MeOH can again result in the explicit interactions between the solute and solvent molecules.

[4] = MeOH, with respect to standard I-TBA in MeOH

CC1(C)c2ccccc2-[n+]2ccc(/C=C/C=C/C3=C(O)c4ccccc4S3(=O)=O)cc21 [AI-SO]
kr(rel) (relative rate constants for product formation during reaction with singlet oxygen produced chemically) [1]: 59.2 | kph * 10^6 (absolute rate of photobleaching) ([2]; C6H6): 128 s^−1 | kph(rel) (relative rate of photobleaching) ([2]; C6H6, with respect to standard I-SO in C6H6): 115 | kph * 10^6 (absolute rate of photobleaching) ([2]; MeOH): 89 s^−1 | kph(rel) (relative rate of photobleaching) [2, 4]: 261 | Absorbance λmax ([3]; Butanol (BuOH)): 650 nm | Emission λmax ([3]; Butanol (BuOH)): 675 nm | Extinction coefficient ε ([3]; Butanol (BuOH)): 118000 | Fluorescence quantum yield Φ ([3]; Butanol (BuOH)): 0.92 | Absorption energy Eabs Exp ([3]; C6H6): 1.826 eV | Emission energy Eem Exp ([3]; C6H6): 1.794 eV | Absorption energy Eabs Exp ([3]; MeOH): 2.120 eV | Emission energy Eem Exp ([3]; MeOH): 1.865 eV | Absorbance λmax ([3]; Methanol (MeOH)): 610 nm | Emission λmax ([3]; Methanol (MeOH)): 654 nm | Extinction coefficient ε ([3]; Methanol (MeOH)): 65000 | Fluorescence quantum yield Φ ([3]; Methanol (MeOH)): 0.54 | Observed absorption (ε) ([3]; Table 10, BuOH): (118000) | Observed absorption λmax ([3]; Table 10, BuOH): 650 nm | Observed absorption (ε) ([3]; Table 10, C6H6): (240000) | Observed absorption λmax ([3]; Table 10, C6H6): 679 nm | Observed absorption (ε) ([3]; Table 10, CH2Cl2): (278000) | Observed absorption λmax ([3]; Table 10, CH2Cl2): 667 nm | Observed absorption (ε) ([3]; Table 10, CH3CN): (142000) | Observed absorption λmax ([3]; Table 10, CH3CN): 642 nm | Observed absorption (ε) ([3]; Table 10, DMF): (154000) | Observed absorption λmax ([3]; Table 10, DMF): 651 nm | Observed absorption (ε) ([3]; Table 10, DMSO): (118000) | Observed absorption λmax ([3]; Table 10, DMSO): 644 nm | Observed absorption (ε) ([3]; Table 10, EtOH): (83000) | Observed absorption λmax ([3]; Table 10, EtOH): 636 nm | Observed absorption (ε) ([3]; Table 10, MeOH): (65000) | Observed absorption λmax ([3]; Table 10, MeOH): 610 nm | Observed absorption (ε) ([3]; Table 10, OcOH): (150000) | Observed absorption λmax ([3]; Table 10, OcOH): 660 nm | Observed absorption (ε) ([3]; Table 10, i-PrOH): (122000) | Observed absorption λmax ([3]; Table 10, i-PrOH): 648 nm | Absorption Exp wavelength ([3]; Table 12, C6H6): 679 nm | Absorption Exp wavelength ([3]; Table 12, MeOH): 585 nm | Observed emission (Φ) ([3]; Table 15, BuOH): 0.92 | Observed emission λmax ([3]; Table 15, BuOH): 675 nm | Observed emission (Φ) ([3]; Table 15, C6H6): 0.19 | Observed emission λmax ([3]; Table 15, C6H6): 691 nm | Observed emission (Φ) ([3]; Table 15, CH2Cl2): 0.54 | Observed emission λmax ([3]; Table 15, CH2Cl2): 681 nm | Observed emission (Φ) ([3]; Table 15, CH3CN): 0.75 | Observed emission λmax ([3]; Table 15, CH3CN): 667 nm | Observed emission λmax ([3]; Table 15, DMF): 673 nm | Observed emission λmax ([3]; Table 15, DMSO): 673 nm | Observed emission (Φ) ([3]; Table 15, EtOH): 0.82 | Observed emission λmax ([3]; Table 15, EtOH): 671 nm | Observed emission (Φ) ([3]; Table 15, MeOH): 0.54 | Observed emission λmax ([3]; Table 15, MeOH): 665 nm | Observed emission (Φ) ([3]; Table 15, OcOH): 0.88 | Observed emission λmax ([3]; Table 15, OcOH): 679 nm | Observed emission (Φ) ([3]; Table 15, i-PrOH): 0.96 | Observed emission λmax ([3]; Table 15, i-PrOH): 673 nm

CCN1C(=O)\C(=C/C=C/C=C2/N(C)c3ccccc3C2(C)C)C(O)N(CC)C1=S (stereo not shown) [I-TBA, reference compound]
kr(rel) (relative rate constants for product formation during reaction with singlet oxygen produced chemically) [1]: 1.00 | kph * 10^6 (absolute rate of photobleaching) ([2]; MeOH): 0.34 s^−1 | kph(rel) (relative rate of photobleaching) [2, 4]: 1.00 | Absorption energy Eabs Exp ([3]; C6H6): 2.123 eV | Emission energy Eem Exp ([3]; C6H6): 2.050 eV | Absorption energy Eabs Exp ([3]; MeOH): 2.127 eV | Emission energy Eem Exp ([3]; MeOH): 2.056 eV | Observed absorption (ε) ([3]; Table 10, BuOH): (190000) | Observed absorption λmax ([3]; Table 10, BuOH): 589 nm | Observed absorption (ε) ([3]; Table 10, C6H6): (127000) | Observed absorption λmax ([3]; Table 10, C6H6): 584 nm | Observed absorption (ε) ([3]; Table 10, DMF): (183000) | Observed absorption λmax ([3]; Table 10, DMF): 589 nm | Observed absorption (ε) ([3]; Table 10, MeOH): (173000) | Observed absorption λmax ([3]; Table 10, MeOH): 583 nm | Observed absorption (ε) ([3]; Table 10, OcOH): (180000) | Observed absorption λmax ([3]; Table 10, OcOH): 590 nm | Absorption Exp wavelength ([3]; Table 12, C6H6): 585 nm | Absorption Exp wavelength ([3]; Table 12, MeOH): 583 nm | Observed emission (Φ) ([3]; Table 15, BuOH): 0.61 | Observed emission λmax ([3]; Table 15, BuOH): 609 nm | Observed emission (Φ) ([3]; Table 15, C6H6): 0.20 | Observed emission λmax ([3]; Table 15, C6H6): 605 nm | Observed emission (Φ) ([3]; Table 15, DMF): 0.94 | Observed emission λmax ([3]; Table 15, DMF): 611 nm | Observed emission (Φ) ([3]; Table 15, MeOH): 0.26 | Observed emission λmax ([3]; Table 15, MeOH): 603 nm | Observed emission (Φ) ([3]; Table 15, OcOH): 0.99 | Observed emission λmax ([3]; Table 15, OcOH): 609 nm | Observed red shift of emission ΔEem ([3]; from C6H6 to DMF): 0.020 eV | Observed red shift of emission Δλmax ([3]; from C6H6 to DMF): 6 nm | Observed red shift of absorption Δλmax ([3]; from C6H6 to OcOH): 6 nm | Observed blue shift of absorption Δλmax ([3]; from OcOH to MeOH): 7 nm

C[n+]1ccc(/C=C/C=C/C2=C([O-])c3ccccc3S2(=O)=O)cc1 [P-SO(4)]
kr(rel) (relative rate constants for product formation during reaction with singlet oxygen produced chemically) [1]: 60.3 | kph * 10^6 (absolute rate of photobleaching) ([2]; MeOH): 28 s^−1 | kph(rel) (relative rate of photobleaching) [2, 4]: 82 | Observed absorption (ε) ([3]; Table 10, BuOH): (64000) | Observed absorption λmax ([3]; Table 10, BuOH): 593 nm | Observed absorption (ε) ([3]; Table 10, C6H6): (178000) | Observed absorption λmax ([3]; Table 10, C6H6): 644 nm | Observed absorption (ε) ([3]; Table 10, CH2Cl2): (187000) | Observed absorption λmax ([3]; Table 10, CH2Cl2): 629 nm | Observed absorption (ε) ([3]; Table 10, CH3CN): (93000) | Observed absorption λmax ([3]; Table 10, CH3CN): 596 nm | Observed absorption (ε) ([3]; Table 10, DMF): (99000) | Observed absorption λmax ([3]; Table 10, DMF): 604 nm | Observed absorption (ε) ([3]; Table 10, DMSO): (77000) | Observed absorption λmax ([3]; Table 10, DMSO): 599 nm | Observed absorption (ε) ([3]; Table 10, EtOH): (61000) | Observed absorption λmax ([3]; Table 10, EtOH): 557 nm | Observed absorption (ε) ([3]; Table 10, MeOH): (54000) | Observed absorption λmax ([3]; Table 10, MeOH): 580 nm | Observed absorption (ε) ([3]; Table 10, OcOH): (80000) | Observed absorption λmax ([3]; Table 10, OcOH): 612 nm | Observed absorption (ε) ([3]; Table 10, i-PrOH): (68000) | Observed absorption λmax ([3]; Table 10, i-PrOH): 597 nm | Observed emission (Φ) ([3]; Table 15, BuOH): 0.048 | Observed emission λmax ([3]; Table 15, BuOH): 640 nm | Observed emission (Φ) ([3]; Table 15, C6H6): 0.002 | Observed emission λmax ([3]; Table 15, C6H6): 656 nm | Observed emission (Φ) ([3]; Table 15, CH2Cl2): 0.082 | Observed emission λmax ([3]; Table 15, CH2Cl2): 650 nm | Observed emission (Φ) ([3]; Table 15, CH3CN): 0.067 | Observed emission λmax ([3]; Table 15, CH3CN): 632 nm | Observed emission (Φ) ([3]; Table 15, DMF): 0.10 | Observed emission λmax ([3]; Table 15, DMF): 635 nm | Observed emission (Φ) ([3]; Table 15, DMSO): 0.067 | Observed emission λmax ([3]; Table 15, DMSO): 636 nm | Observed emission (Φ) ([3]; Table 15, EtOH): 0.029 | Observed emission λmax ([3]; Table 15, EtOH): 634 nm | Observed emission (Φ) ([3]; Table 15, MeOH): 0.018 | Observed emission λmax ([3]; Table 15, MeOH): 630 nm | Observed emission (Φ) ([3]; Table 15, OcOH): 0.082 | Observed emission λmax ([3]; Table 15, OcOH): 644 nm | Observed emission (Φ) ([3]; Table 15, i-PrOH): 0.049 | Observed emission λmax ([3]; Table 15, i-PrOH): 636 nm
